Data: PubChem BioAssay AID1963839 (Molecular Pharmacology Branch, DTP, NCI, 2024)
“And” between values parts separate entries of the source, which are not always exact repeats. Equal entries are not always repeated.

System: 817829-284-R-J1-PDC complex spheroid viability
Test: Anticancer human tumor 817829-284-R-J1-PDC patient-derived colon adenocarcinoma cell line growth inhibition [POLQ]
Details: for viability, T/C: stronger effect = lower value
Method: Multicellular complex tumor spheroid response to Polymerase (POL) inhibitors (novobiocin, ART-558, RP6685) in combination with a variety of drugs and investigational agents in selected tumor cell lines
The POL inhibitors (novobiocin, ART-558, and RP6685) were evaluated both individually and in combination with standard of care and investigational anticancer small molecules within a complex spheroid model of solid tumors. . Complex spheroids include a stromal component modeled by human endothelial cells (HUVEC) and fibroblasts modeled by human mesenchymal stem cells (MSCs). The concentration ranges selected for each drug and investigational agent were based upon clinically achievable concentrations if the clinical Cmax of the agent was known.
Compounds. The drugs and investigational agents: novobiocin (NSC847541), ART-558 (NSC835418), RP-6685 (NSC848927), peposertib (NSC802822), ceralasertib (NSC780249), elimusertib (NSC800525), camonsertib (NSC841442), AZD-1390 (NSC803789), olaparib (NSC753686), talazoparib (NSC767125), rucaparib (NSC756644), sotorasib (NSC818433), MRTX-1133 (NSC836407), SN-38 (NSC673596), topotecan (NSC609699), epotoside (NSC141540), doxorubicin (NSC123127), gemcitabine (NSC613327), 5-fluorouracil (NSC19893), paclitaxel (NSC125973), vemurafenib (NSC761431), MSA-2 (NSC828583), SN-011 (NSC837082), adavosertib (NSC754352), prexasertib (NSC758257), carboplatin (NSC241240) and oxaliplatin (NSC266046), were obtained from the National Cancer Institute (NCI) Developmental Therapeutics Program Chemical Repository (21). The FDA-approved anticancer drug set is available from the Developmental Therapeutics Program at https://dtp.cancer.gov/organization/dscb/obtaining/. […] The stock solutions were prepared in dimethyl sulfoxide (DMSO, Sigma-Aldrich, St. Louis, MO, cat. D2650), except for the platinum compounds which were prepared in saline (Quality Biological, Gaithersburg, MD, cat. 114-055-101), at 800-fold the tested concentration and stored at -70 degrees C prior to their use. All drugs and investigational agents were tested over a range starting from a high concentration at or near the clinical Cmax and decreasing in half-log increments. If the clinical Cmax for an agent had not been determined, the highest concentration tested was 10 microM, except for SN-38, which was tested at a high concentration of 1 microM.
Cell Culture. All cells were maintained in an incubator at 37 degrees C and 5% CO2 with 95% humidity. The PDC lines were cultured according to standard operating procedures established by the NCI PDMR (https://pdmr.cancer.gov). Table 3 of the manuscript, lists the cell lines along with the number of the three cell types plated to form the mct-spheroids and media for tumor cell growth. After thawing, all PDC lines, except 997537-175-T-J1-PDC and 415267-285-R-J2-PDC, were cultured in Matrigel-coated flasks prepared with a working solution of 1X Ham's F-12 nutrient mix, without supplementation (Thermo Fisher Scientific, cat. 11765054), 100 U/mL penicillin-streptomycin (Thermo Fisher Scientific, cat. 15140122), and 2.5% Matrigel (Corning Inc., Corning, NY, cat. 354248) for the first three passages. The two PDC lines 997537-175-T-J1-PDC and 415267-285-R-J2-PDC were cultured on uncoated flasks. The 857933-349-R-J2-PDC line was cultured in 6C/Colon 1B media containing advanced DMEM/F-12 (Thermo Fisher Scientific, cat. 12634028), 10 mM HEPES (Thermo Fisher Scientific, cat. 15630080), 1X GlutaMAX supplement (Thermo Fisher Scientific, cat. 35050061), 0.1 mg/mL primocin (InvivoGen, San Diego, CA, cat. ant-pm-2), 10% defined fetal bovine serum, heat inactivated (HyClone Laboratories Inc., Logan, UT, cat. SH30070.03HI), 50% L-WRN conditioned media (ATCC, cat. CRL-3276), 1.25 mM N-Acetyl-L-cysteine (Sigma-Aldrich, cat. A9165), 10 mM nicotinamide (Sigma-Aldrich, cat. N0636), 1X B-27 supplement (Thermo Fisher Scientific, cat. 17504044), 1X N-2 supplement (Thermo Fisher Scientific, cat. […]
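Also: spheroids exposed to compounds for 7 days.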
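For viability, T/C in this document: 100% = DMSO vehicle-treated spheroids.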

CCCS(=O)(=O)Nc1ccc(F)c(C(=O)c2c[nH]c3ncc(-c4ccc(Cl)cc4)cc23)c1F
viability, T/C (compound 0.0316 µM): 89.8% and 97% and 86.7%
viability, T/C (compound 0.1 µM): 87% and 72.4% and 57%
viability, T/C (compound 0.316 µM): 66.1% and 86.6% and 80.9%
viability, T/C (compound 1 µM): 72.1% and 59.4% and 61%
viability, T/C (compound 3.16 µM): 55.4% and 56.3% and 59.4%
viability, T/C (compound 10 µM): 7.53% and 9.53% and 19.9%
IC50 (curve of compound): 3260 nM and 2920 nM and 3800 nM

Nc1ccc(C#CCN(C(=O)Cc2ncc(C(F)(F)F)cc2C(F)(F)F)c2ccc(F)cc2)nn1
viability, T/C (compound 3.16 µM): 97.9% [middle of 13 runs]
viability, T/C (compound 10 µM): 99.7% [middle of 13 runs]
IC50 (compound alone, run of 12/05/2023): > 10000 nM

CC[C@@]1(O)C(=O)OCc2c1cc1n(c2=O)Cc2cc3c(CN(C)C)c(O)ccc3nc2-1 + COC1C(OC(N)=O)C(O)C(Oc2ccc3c(O)c(NC(=O)c4ccc(O)c(CC=C(C)C)c4)c(=O)oc3c2C)OC1(C)C
IC50 (curve of first compound, second compound 0.0316 µM): 4.86 nM
IC50 (curve of first compound, second compound 0.1 µM): 6.13 nM
IC50 (curve of first compound, second compound 0.316 µM): 5.58 nM
IC50 (curve of first compound, second compound 1 µM): 7.53 nM
IC50 (curve of first compound, second compound 3.16 µM): 7.95 nM
IC50 (curve of first compound, second compound 10 µM): 5.89 nM
viability, T/C (second compound 0.0316 µM, first compound 0.000316 µM): 80.6%
viability, T/C (second compound 0.0316 µM, first compound 0.001 µM): 87.4%
viability, T/C (second compound 0.0316 µM, first compound 0.00316 µM): 58.6%
viability, T/C (second compound 0.0316 µM, first compound 0.01 µM): 32.5%
viability, T/C (second compound 0.0316 µM, first compound 0.0316 µM): 21.7%
viability, T/C (second compound 0.0316 µM, first compound 0.1 µM): 16.1%
viability, T/C (second compound 0.1 µM, first compound 0.000316 µM): 69.7%
viability, T/C (second compound 0.1 µM, first compound 0.001 µM): 81.7%
viability, T/C (second compound 0.1 µM, first compound 0.00316 µM): 76.2%
viability, T/C (second compound 0.1 µM, first compound 0.01 µM): 30.9%
viability, T/C (second compound 0.1 µM, first compound 0.0316 µM): 21.4%
viability, T/C (second compound 0.1 µM, first compound 0.1 µM): 15.7%
viability, T/C (second compound 0.316 µM, first compound 0.000316 µM): 74.4%
viability, T/C (second compound 0.316 µM, first compound 0.001 µM): 78.8%
viability, T/C (second compound 0.316 µM, first compound 0.00316 µM): 57.8%
viability, T/C (second compound 0.316 µM, first compound 0.01 µM): 40.8%
viability, T/C (second compound 0.316 µM, first compound 0.0316 µM): 20.1%
viability, T/C (second compound 0.316 µM, first compound 0.1 µM): 17.3%
viability, T/C (second compound 1 µM, first compound 0.000316 µM): 83.2%
viability, T/C (second compound 1 µM, first compound 0.001 µM): 106%
viability, T/C (second compound 1 µM, first compound 0.00316 µM): 84.1%
viability, T/C (second compound 1 µM, first compound 0.01 µM): 38.6%
viability, T/C (second compound 1 µM, first compound 0.0316 µM): 20.2%
viability, T/C (second compound 1 µM, first compound 0.1 µM): 16.2%
viability, T/C (second compound 3.16 µM, first compound 0.000316 µM): 106%
viability, T/C (second compound 3.16 µM, first compound 0.001 µM): 78.2%
viability, T/C (second compound 3.16 µM, first compound 0.00316 µM): 99.8%
viability, T/C (second compound 3.16 µM, first compound 0.01 µM): 38.8%
viability, T/C (second compound 3.16 µM, first compound 0.0316 µM): 20.5%
viability, T/C (second compound 3.16 µM, first compound 0.1 µM): 18.4%
viability, T/C (second compound 10 µM, first compound 0.000316 µM): 97.6%
viability, T/C (second compound 10 µM, first compound 0.001 µM): 87.6%
viability, T/C (second compound 10 µM, first compound 0.00316 µM): 69.3%
viability, T/C (second compound 10 µM, first compound 0.01 µM): 34%
viability, T/C (second compound 10 µM, first compound 0.0316 µM): 20.6%
viability, T/C (second compound 10 µM, first compound 0.1 µM): 19.1%
